US10590115B2, “Tetrahydroquinazoline derivatives useful as anticancer agents” (PFIZER INC., priority 2018, dated 2020)

Biological target: T1, GDP-loaded kRas (1-169) G12C, C51S, C80L, C118S (Homo sapiens, UniProt P01116, C118S/C51S/C80L/G12C)
T1 construct: GDP-loaded kRas (1-169) G12C, C51S, C80L, C118S
Test: Mass Spectrometry Reactivity Assay (MSRA), covalent adduct with kRas G12C
Format: binding
Conditions: 0.5 h at room temperature; 5 μM KRas protein; typical final concentration of the compounds 10 μM
Method: Mass Spectrometry Reactivity Assay (MSRA)
Compounds presented in the present invention covalently bind to kRas G12C using MSRA to detect a covalent adduct of the exemplary compound and kRas G12C. GDP-loaded kRas (1-169) G12C, C51S, C80L, C118S were diluted in the protein assay buffer 25 mM Hepes pH7.5, 200 mM NaCl, 5% glycerol to concentration of 5 μM and 20 μl of protein was transferred into 96-well plate. […] See K-Ras(G12C) inhibitors allosterically control GTP affinity and effector interactions; Ostrem J M, Peters U, Sos M L, Wells J A, Shokat K M; Nature. 2013, Nov. 28; 503(7477):548-51.
Exemplary compounds dissolved in DMSO were diluted 100-fold into solution containing 20 μl of 5 μM KRas protein in the 96-well plate to initiate the reaction. Mosquito (TPP Lab tech) liquid handling robot was used to add compounds to protein solution. Typical final concentration of the compounds was 10 μM. The plates were placed on a shaker for 1 min at RT, sealed and incubated at room temperature for specified time period. 5 μl of reaction mix was added to 10 μl of 0.2% formic acid stop solution and mixed well. Typical end points were 30, 120, 600 and 1440 min.
Data were collected using Waters Acquity H-class UPLC system/Xevo G2-XS TOF mass spectrometer. The protein was injected in their liquid phase onto a Bruker Microtrap protein column TR1/15109/03. The following buffers were used to set LC gradient: Buffer A: 0.2% formic acid H20; B: 0.2% formic acid CAN. The protein was eluted from the column using the following LC Gradient: 0-0.4 min, 10% B to 30% B; 0.4 min-2.4 min, to 90% B, 2.5 min, 10% B, 3 min, 10% B. Initial data analysis was performed using MaxEnt software right after data acquisition.
The standard auto processing function was used to define percentage of unmodified and modified kRas protein using MexEnt software right after data acquisition. The highest peak was defined as 100% while smaller peak as assigned the number defined by autoprocessing function. The percent of modification corresponding to modified with exemplary compound and unmodified KRas GDP-loaded kRas (1-169) G12C, C51S, C80L, C118S were exported to Xcel data analysis software.
The percent of modified protein at the defined concentration of exemplary compound was calculated using the following formula: % mod=Num of modified peak/Sum of modified+unmodified.

Row | % Modification (0.5 h) [%] | SMILES
1 | 0 | C=CC(=O)N1CCN(c2ncnc3c2CC[C@@H](c2cc(O)cc4ccccc24)C3)CC1 (single isomer, unassigned) [Example G2]
2 | 22 | C=CC(=O)N1CCN(c2nc(OCCCOC)nc3c2CCC(c2c(C)ccc4[nH]ncc24)C3)CC1 (stereo not shown) [Example C2, 1-{4-[2-(3-methoxypropoxy)-7-(5-methyl-1H-indazol-4-yl)-5,6,7,8-tetrahydroquinazolin-4-yl]piperazin-1-yl}prop-2-en-1-one]
3 | 0 | C=CC(=O)N1CCN(c2nc(N3CC(N(C)C)C3)nc3c2C[C@H](C)[C@@H](c2c(C)ccc4[nH]ncc24)C3)CC1 (single isomer, unassigned) [Example F3]
4 | 3 | C=CC(=O)N1CCN(c2ncnc3c2C[C@H](C)[C@@H](c2c(C)ccc4[nH]ncc24)C3)CC1 [Example A6, 1-{4-[(6S,7S)-6-methyl-7-(5-methyl-1H-indazol-4-yl)-5,6,7,8-tetrahydroquinazolin-4-yl]piperazin-1-yl}prop-2-en-1-one]
5 | 0 | C=CC(=O)N1CCN(c2ncnc3c2CC[C@@H](c2c(C)ccc4[nH]ncc24)C3)CC1 (single isomer, unassigned) [Example A2]
6 | 12 | C=CC(=O)N1CCN(c2ncnc3c2C[C@@H](C)[C@H](c2c(CO)ccc4[nH]ncc24)C3)CC1 [Example D1, 1-(4-{(6R,7R)-7-[5-(hydroxymethyl)-1H-indazol-4-yl]-6-methyl-5,6,7,8-tetrahydroquinazolin-4-yl}piperazin-1-yl)prop-2-en-1-one]
7 | 40 | C=CC(=O)N1CCN(c2ncnc3c2C[C@@H](C)[C@H](c2c(C)cc(O)c4[nH]ncc24)C3)CC1 [Example E1, 1-{4-[(6R,7R)-7-(7-hydroxy-5-methyl-1H-indazol-4-yl)-6-methyl-5,6,7,8-tetrahydroquinazolin-4-yl]piperazin-1-yl}prop-2-en-1-one]
8 | 13 | C=CC(=O)N1CCN(c2ncnc3c2CCC(c2c(C)ccc4[nH]ncc24)C3)[C@@H](C)C1 (stereo partly drawn) [Example B2, 1-{(3S)-3-methyl-4-[7-(5-methyl-1H-indazol-4-yl)-5,6,7,8-tetrahydroquinazolin-4-yl]piperazin-1-yl}prop-2-en-1-one]
9 | 8 | C=CC(=O)N1CCN(c2nc(N3CC(N(C)C)C3)nc3c2C[C@H](C)[C@@H](c2c(Cl)ccc4[nH]ncc24)C3)CC1 (single isomer, unassigned) [Example F11]
10 | 16 | C=CC(=O)N1CCN(c2ncnc3c2CCC(c2c(C(F)(F)F)ccc4[nH]ncc24)C3)CC1 (stereo not shown) [Example G1, 1-(4-(7-(5-(trifluoromethyl)-1H-indazol-4-yl)-5,6,7,8-tetrahydroquinazolin-4-yl)piperazin-1-yl)prop-2-en-1-one]
